Like-named read-outs stand apart in the source and are kept apart here.
Key:
Herpes simplex 1 = assay type: in vivo, NMRI mice; details: for Survivors: groups of 5 mice
Description: The treatment was performed twice daily, starting after the infection. The substances were administered to the experimental animals 5 or 9 times (see Table 1).
The chemotherapeutic action can be seen from Table 1.

in vitro = details: hela and vero cells
[1] = po 9 × 0 mg/kg (so in the source)

Compound | Average survival time (Herpes simplex 1; po 5 × 2.5 mg/kg) [days] | Survivors (Herpes simplex 1; po 5 × 2.5 mg/kg) | Average survival time (Herpes simplex 1; po 5 × 25 mg/kg) [days] | Survivors (Herpes simplex 1; po 5 × 25 mg/kg) | Average survival time (Herpes simplex 1; sc 5 × 2.5 mg/kg) [days] | Survivors (Herpes simplex 1; sc 5 × 2.5 mg/kg) | Average survival time (Herpes simplex 1; sc 5 × 25 mg/kg) [days] | Survivors (Herpes simplex 1; sc 5 × 25 mg/kg) | Average survival time (Herpes simplex 1; sc 5 × 250 mg/kg) [days] | Survivors (Herpes simplex 1; sc 5 × 250 mg/kg) | further results
CCOP(=O)(Cc1ccccc1Br)OCC [C, diethyl 2-bromobenzylphosphonate] | 6.7 | 2 | 8.5 | 3 | – | – | – | – | – | – | Average survival time (Herpes simplex 1; po 5 × 250 mg/kg): 8.0 days; Survivors (Herpes simplex 1; po 5 × 250 mg/kg): 2
Cc1ccccc1CP(=O)(OC(C)C)OC(C)C [L, diisopropyl 2-methylbenzylphosphonate] | – | 5 | 8.7 | 2 | 8.3 | 1 | 7.4 | 0 | 6.5 | 3 | Average survival time (Herpes simplex 1; po 5 × 250 mg/kg): 8.7 days; Survivors (Herpes simplex 1; po 5 × 250 mg/kg): 2
CCOP(=O)(Cc1cc(C)ccc1C)OCC [K, diethyl 2,5-dimethylbenzylphosphonate] | – | – | – | – | 7.4 | 0 | 8.6 | 0 | 8.0 | 3 | –
COP(=O)(Cc1ccccc1C)OC [A, dimethyl 2-methylbenzylphosphonate] | 10.5 | 3 | 9.0 | 3 | 12.0 | 2 | 9.0 | 4 | 9.0 | 4 | –
CCOP(=O)(Cc1ccccc1C)OCC [E, diethyl 2-methylbenzylphosphonate] | – | – | – | – | – | – | – | – | – | – | Average survival time (Herpes simplex 1; [1]): 7.0 days; Survivors (Herpes simplex 1; [1]): 2; Average survival time (Herpes simplex 1; po 9 × 3 mg/kg): 5.7 days; Survivors (Herpes simplex 1; po 9 × 3 mg/kg): 1; Average survival time (Herpes simplex 1; po 9 × 30 mg/kg): 7.5 days; Survivors (Herpes simplex 1; po 9 × 30 mg/kg): 3; Average survival time (Herpes simplex 1; sc 9 × 3 mg/kg): 6.3 days; Survivors (Herpes simplex 1; sc 9 × 3 mg/kg): 1; Average survival time (Herpes simplex 1; sc 9 × 10 mg/kg): 6.5 days; Survivors (Herpes simplex 1; sc 9 × 10 mg/kg): 3; Average survival time (Herpes simplex 1; sc 9 × 30 mg/kg): 6.7 days; Survivors (Herpes simplex 1; sc 9 × 30 mg/kg): 2
CCCCOP(=O)(Cc1ccccc1C)OCCCC [M, di-n-butyl 2-methylbenzylphosphonate] | – | – | – | – | 7.0 | 4 | 7.5 | 3 | 7.7 | 1 | –
CCOP(=O)(Cc1ccc(Br)cc1)OCC [D, diethyl 4-bromobenzylphosphonate] | 7.0 | 2 | 6.0 | 3 | 8.5 | 3 | 8.0 | 4 | – | – | Average survival time (Herpes simplex 1; po 5 × 0.25 mg/kg): 8.7 days; Survivors (Herpes simplex 1; po 5 × 0.25 mg/kg): 2; Average survival time (Herpes simplex 1; po 9 × 3 mg/kg): 8.0 days; Survivors (Herpes simplex 1; po 9 × 3 mg/kg): 4; Average survival time (Herpes simplex 1; po 9 × 10 mg/kg): 8.3 days; Survivors (Herpes simplex 1; po 9 × 10 mg/kg): 2; Average survival time (Herpes simplex 1; po 9 × 30 mg/kg): 10.5 days; Survivors (Herpes simplex 1; po 9 × 30 mg/kg): 3; Average survival time (Herpes simplex 1; sc 5 × 0.25 mg/kg): 9.0 days; Survivors (Herpes simplex 1; sc 5 × 0.25 mg/kg): 1
Cc1ccccc1CP(=O)(O)O [O, di-triethylammonium 2-methylbenzylphosphonate] | – | – | – | – | – | – | – | – | – | – | MNTC (in vitro): 133 µg/mL
